Measured values taken from patent US20250163072A1, “MACROCYCLIC COMPOUNDS FOR THE TREATMENT OF CANCER” (Hoffmann-La Roche Inc., priority 2021, published 2025).

Legend:
[1] = GSH reaction rates (inherent GSH reactivity); type: in vitro ADME; conditions: 1 μM compound, 5 mM GSH, 37° C.
Summary of the method: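 Compounds at 1 μM were incubated at 37° C with or without 5 mM GSH in 100 mM potassium phosphate pH 7.4 for 0-6 h. Samples were quenched with acetonitrile/N-ethylmaleimide and the remaining compound quantified by LC-MS/MS to derive T1/2.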

NCI-H358 cells = test: Cell viability assay, NCI-H358; type: cell-based, human; conditions: Homo sapiens, NCI-H358, 72 hours, Cell Counting Kit-8, read-out: G12C IC50
Summary of the method: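 Cells were plated at 5,000 (NCI-H358) or 2,000 (AGS, SW620) per well and incubated overnight. They were then treated with compound in 0.5% DMSO for 72 h. Viability was read with CCK-8 as OD450 minus OD650 after 2 h, and IC50 came from a 4-parameter sigmoidal fit.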

[2] = system: KRAS G12C in NCI-H358 cells; test: pERK inhibition assay, NCI-H358; type: cell-based, human; conditions: Homo sapiens, 4 hours incubation
Summary of the method: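 NCI-H358, AGS and SW620 cells in RPMI-1640/10% FBS were plated overnight, then exposed to compound (0.5% DMSO final) for 4 h. After fixation and permeabilization, phospho-ERK was quantified by in-cell ELISA (HRP secondary, TMB, OD450); IC50 from a 4-parameter sigmoidal fit.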

KRAS G12C-BRAF complex = KRAS G12C-BRAF complex (Homo sapiens (Human), UniProt P01116+P62937, G12C); test: KRAS G12C-BRAF NanoBit assay; type: cell-based; conditions: HEK293 cells, SmBit-KRAS G12C and BRAF RBD-LgBit, 3 hours incubation
Sequence of KRAS G12C-BRAF complex (P01116-2 other isoform, or with tags, fused parts or gaps G12C): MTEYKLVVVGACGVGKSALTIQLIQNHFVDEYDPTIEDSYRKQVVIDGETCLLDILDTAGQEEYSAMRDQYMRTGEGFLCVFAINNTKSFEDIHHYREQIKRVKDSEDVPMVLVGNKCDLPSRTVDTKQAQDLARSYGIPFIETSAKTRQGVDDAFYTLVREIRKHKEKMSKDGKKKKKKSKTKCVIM
Sequence of KRAS G12C-BRAF complex (P62937 whole entry): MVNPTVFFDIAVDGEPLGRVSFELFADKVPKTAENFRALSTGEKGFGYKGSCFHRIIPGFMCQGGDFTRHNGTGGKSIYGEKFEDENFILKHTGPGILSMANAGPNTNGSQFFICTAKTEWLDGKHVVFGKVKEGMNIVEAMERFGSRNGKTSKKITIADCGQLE
Method: This assay is to measure the ability of tested compounds in disruption of the KRAS G12C-BRAF complex at the cellular level, we established the NanoBit cellular assay in mammalian HEK293 (ATCC) cells. HEK293 cells were grown and maintained using DMEM medium (Thermo Fisher Scientific) with 10% fetal bovine serum and 1% penicillin/streptomycin. Both KRAS G12C and BRAF RBD were cloned into the NanoBit vectors ([…] vectors system, Promega) with the orientations SmBit-KRAS G12C and BRAF RBD-LgBit, respectively, and co-transfected into HEK293 cells. Cells were then selected with 100 μg/mL Hygromycin B (10687010, Thermo Fisher) and Blasticidin (5 μg/mL) for 4 weeks to get the stable cell pool. On the day of the assay, 75 nL of compound solution was presented in a 384-well assay plate as a 16-point 3-fold dilution starting from a final concentration of 30 μM in DMSO. Then cells were seeded at 10,000 cells/25 μL/well in a 384-well plate. After 3 hours of incubation, 6 μL of volume of Nano-Glo® Live Cell Substrate (Promega) was added into each well. Monitor luminescence using ultra384 model in Envision at 20 minutes. Compounds that facilitate disruption of the KRAS G12C-BRAF RBD complex were identified as those eliciting a decrease of luminescence relative to DMSO control wells.

With `CO[C@@H](C)c1ncc(N2CCOCC2)cc1-c1c2c3cc(ccc3n1CC(F)(F)F)-c1csc(n1)C[C@H](NC(=O)[C@H](C(C)C)N(C)C(=O)[C@H]1CCN(C(=O)[C@H](F)Cl)C1)C(=O)N1CCC[C@H](N1)C(=O)OCC(C)(C)C2` (atropisomer, axis not shown; (M)) [Example 25, (3S)-1-[(2R)-2-chloro-2-fluoro-acetyl]-N-[(1S)-1-[[(7S,13S)-(20M)-20-[2-[(1S)-1-methoxyethyl]-5-morpholino-3-pyridyl]-17,17-dimethyl-8,14-dioxo-21-(2,2,2-trifluoroethyl)-15-oxa-4-thia-9,21,27,28-tetrazapentacyclo[17.5.2.12,5.19,13.022,26]octacosa-1(25),2,5(28),19,22(26),23-hexaen-7-yl]carbamoyl]-2-methyl-propyl]-N-methyl-pyrrolidine-3-carboxamide] the “Remaining at 6 hr in GSH (%)” value ([1]; pH 7.4, 6 hr) was 100%, the “T1/2(hour) in GSH” value ([1]; potassium phosphate buffer pH 7.4) was “stable (If % depletion after 6 hour incubation is less than 20%, compounds were reported as stable)” and the IC50 (NCI-H358 cells) was < 0.6 nM. The IC50 [2] was 1 nM and the IC50 (KRAS G12C-BRAF complex) was 20 nM.
